Eight substances from patent US20110003751A1, “Novel Immunoregulatory Peptides, Compositions and Uses Thereof” (priority 2007, published 2011) can be followed below.

The subject of the experiment is CFU-S regeneration in the bone marrow of 1-Gy irradiated mice. Briefly: Stimulation of CFU-S regeneration in bone marrow of 1-Gy irradiated mice (spleen colony count). The format is in vivo. Here is the method: Test animals were irradiated with ^60Co gamma-rays at a dose rate of 0.8 Gy per min. Bone marrow recipients were irradiated with a dose of 8 Gy; donors were irradiated with a dose of […]. The suspension of bone marrow cells of intact animals was irradiated with 1 Gy, 5-10 min prior to injection to lethally irradiated recipients.
Stimulation of CFU-S regeneration in the bone marrow of 1-Gy irradiated mice was studied with different routes of administration of the peptides.
For this purpose, at least 5 mice from each group were killed and their bone marrow was obtained. Cell suspension was prepared and injected to lethally irradiated mice. After 9 days, spleen colonies were counted to determine the CFU-S content in 1-Gy irradiated donors who received the peptide.

Setting [1] is: per os (oral gavage), 100 ug/kg, 30 min after injection of bone marrow suspension, average of two tests.
The mark [2] stands for this setting: intraperitoneally, 100 ug/kg, 30 min after injection of bone marrow suspension, average of two tests.

“H-L-Ile-D-Glu-D-Trp-OH [reference compound]”: the Colony count under setting [1] came to 5.8 ± 0.3. Where the note is “per os, 100 ug/kg”, the Activity % is listed as 0% and the Stimulation index was 0.

Turning to “H-L-Ile-L-Glu-L-Trp-OH [reference compound]”, the “% stimulation” value runs as follows: (IP, 10 ug/kg) 82%; (IP, 100 ug/kg (Table 4)) 81%; (IP, 1000 ug/kg) 100%; (per/os, 100 ug/kg (Table 4)) 0%; (per/os, 1000 ug/kg) 0%. Besides, the Colony count by setting is: (IP, 10 ug/kg) 9.7 ± 0.4; (IP, 100 ug/kg (Table 4)) 9.6 ± 0.7; (IP, 1000 ug/kg) 11.8 ± 00.9; under setting [2], 8.2 ± 0.5; under setting [1], 5.6 ± 0.5; (per/os, 100 ug/kg (Table 4)) 6.7 ± 0.5. Besides, the Colony count (per/os, 1000 ug/kg) was found to be 6.1 ± 00.3. Further, the Activity % is 80% (intraperitoneally, 100 ug/kg) and 0% (per os, 100 ug/kg). The Stimulation index reads like this: (intraperitoneally, 100 ug/kg) 0.8; (per os, 100 ug/kg) 0.

In the case of H-L-Ile-γ-Glu-L-Trp-OH, the “% stimulation” value (IP, 10 ug/kg) was 64%; the “% stimulation” value (IP, 100 ug/kg (Table 4)) came out at 69%; the “% stimulation” value (IP, 1000 ug/kg) is 87%; the “% stimulation” value (per/os, 10 ug/kg) was 0%; the “% stimulation” value (per/os, 100 ug/kg (Table 4)) is reported as 70%; the “% stimulation” value (per/os, 1000 ug/kg) turned out to be 90%. The Colony count was 7.6 ± 0.7 (IP, 10 ug/kg); 8.2 ± 00.4 (IP, 100 ug/kg (Table 4)); 10.4 ± 00.6 (IP, 1000 ug/kg); 8.6 ± 0.7 under setting [2]; 8.6 ± 0.7 under setting [1]; 6.9 ± 0.7 (per/os, 10 ug/kg). Also, the Colony count worked out at 8.3 ± 0.4 (per/os, 100 ug/kg (Table 4)) and 10.7 ± 00.8 (per/os, 1000 ug/kg). In addition, the Activity % is, setting by setting: (intraperitoneally, 100 ug/kg) 84%; (per os, 100 ug/kg) 83%. For the same substance, the Stimulation index by setting is: (intraperitoneally, 100 ug/kg) 0.8; (per os, 100 ug/kg) 0.8.

As for “H-L-Leu-L-Glu-L-Trp-OH [reference compound]”, the Activity % worked out at 74% (intraperitoneally, 100 ug/kg) and 0% (per os, 100 ug/kg). Besides, the Stimulation index runs as follows: (intraperitoneally, 100 ug/kg) 0.7; (per os, 100 ug/kg) 0. The substance also showed a Colony count under setting [2] of 7.6 ± 0.7 and a Colony count under setting [1] of 6.2 ± 0.3.

As for H-L-Leu-L-γ-Glu-L-Trp-OH, the Activity % runs as follows: (intraperitoneally, 100 ug/kg) 69%; (per os, 100 ug/kg) 67%. The Stimulation index came to 0.7 (intraperitoneally, 100 ug/kg) and 0.7 (per os, 100 ug/kg). Besides, the Colony count runs as follows: under setting [2], 6.9 ± 0.6; under setting [1], 6.7 ± 0.7.

Turning to “H-L-Trp-L-Glu-L-Ile-OH [reference compound]”, the Activity % stood at 79% (intraperitoneally, 100 ug/kg) and 0% (per os, 100 ug/kg). Also, the Stimulation index runs as follows: (intraperitoneally, 100 ug/kg) 0.8; (per os, 100 ug/kg) 0. Further, the Colony count was 8.1 ± 1.0 under setting [2] and 5.9 ± 0.8 under setting [1].

H-L-γ-Glu-D-Trp-L-Ile-OH: the Activity % by setting is: (intraperitoneally, 100 ug/kg) 61%; (per os, 100 ug/kg) 66%. For the same substance, the Stimulation index was 0.6 (intraperitoneally, 100 ug/kg) and 0.7 (per os, 100 ug/kg). Moreover, the Colony count by setting is: under setting [2], 6.2 ± 0.5; under setting [1], 6.8 ± 0.5.

Consider H-L-γ-Glu-L-Trp-L-Ile-OH, for which the Activity % by setting is: (intraperitoneally, 100 ug/kg) 73%; (per os, 100 ug/kg) 75%. The Stimulation index reads like this: (intraperitoneally, 100 ug/kg) 0.7; (per os, 100 ug/kg) 0.7. The Colony count reads like this: under setting [2], 7.5 ± 0.5; under setting [1], 7.7 ± 0.6.
